Test results: patent US20150010928A1, “MEANS AND METHODS FOR ASSESSING AN ENDOCRINE DISEASE OR DISORDER” (priority 2012, published 2015)
Marks after values point to notes of the source that are not given here.

System: female rats
Assay: Plasma metabolite profiling (GC-MS, LC-MS, SPE-LC-MS) in female rats dosed once daily over 28 days (OECD 407)
Assay type: in vivo, rat
Conditions: high dose
Outline: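 Polar and lipid fractions profiled by GC-MS and LC-MS/MRM, steroids by online SPE-LC-MS; pool-normalized data compared to controls by Welch test as treatment ratios and p-values.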

C[C@@H]1CC2=CC(=O)CC[C@@H]2[C@H]2CC[C@@]3(C)[C@@H](CC[C@]3(C)O)[C@@H]21 [Mibolerone]
3-Hydroxybutyrate (f7, female rats, Table 15a): 1.36 *
DAG (C18:1,C18:2) (f7, female rats, Table 15a): 0.43
Glutamate (f7, female rats, Table 15a): 1.66 *
Glycine (f7, female rats, Table 15a): 1.19 *
Phosphatidylcholine (C16:0,C20:5) (f7, female rats, Table 15a): 0.56
TAG (C16:0,C16:1) (f7, female rats, Table 15a): 2.26
TAG (C16:0,C18:1,C18:3) (f7, female rats, Table 15a): 1.22
TAG (C16:0,C18:2) (f7, female rats, Table 15a): 0.87
TAG (C18:1,C18:2) (f7, female rats, Table 15a): 0.77
TAG (C18:2,C18:2) (f7, female rats, Table 15a): 0.9
TAG (C18:3, C18:2, C18:1) (f7, female rats, Table 15a): 0.99
TAG (DAG-Fragment) (f7, female rats, Table 15a): 0.95
TAG No 059 (f7, female rats, Table 15a): 1.08 *
Threonic acid (f7, female rats, Table 15a): 1.15 *
trans-4-Hydroxyproline (f7, female rats, Table 15a): 1.8 *
Androstenedione (f7, female rats, Table 15b): 0.14 *
Arginine (f7, female rats, Table 15b): 0.85 *
Campesterol (f7, female rats, Table 15b): 0.16
Ceramide (d18:1,C24:0) (f7, female rats, Table 15b): 0.12 *
Lactate (f7, female rats, Table 15b): 0.62 *
Lysine (f7, female rats, Table 15b): 0.68 *
Metanephrine (f7, female rats, Table 15b): 0.62 *
Normetanephrine (f7, female rats, Table 15b): 1.15
Phosphatidylcholine (C16:0,C20:5) (f7, female rats, Table 15b): 0.56 *
Phosphatidylcholine (C16:0,C22:6) (f7, female rats, Table 15b): 0.18 *
Phosphatidylcholine (C18:0, C20:3) (f7, female rats, Table 15b): 0.2 *
Phosphatidylcholine (C18:0,C18:1) (f7, female rats, Table 15b): 0.21 *
Progesterone (f7, female rats, Table 15b): 0.62
Pyruvate (f7, female rats, Table 15b): 0.75 *
Sphingomyelin (d18:1,C23:0) (f7, female rats, Table 15b): 0.06 *
Sphingomyelin (d18:1,C24:0) (f7, female rats, Table 15b): 0.11 *
Urea (f7, female rats, Table 15b): 0.65 *
3-Hydroxybutyrate (f14, female rats, Table 15a): 1.73 *
DAG (C18:1,C18:2) (f14, female rats, Table 15a): 2.88 *
Glutamate (f14, female rats, Table 15a): 1.67 *
Glycine (f14, female rats, Table 15a): 1.22 *
Phosphatidylcholine (C16:0,C20:5) (f14, female rats, Table 15a): 1.54 *
TAG (C16:0,C16:1) (f14, female rats, Table 15a): 12.22 *
TAG (C16:0,C18:1,C18:3) (f14, female rats, Table 15a): 8.88 *
TAG (C16:0,C18:2) (f14, female rats, Table 15a): 6.82 *
TAG (C18:1,C18:2) (f14, female rats, Table 15a): 8.37 *
TAG (C18:2,C18:2) (f14, female rats, Table 15a): 6.69 *
TAG (C18:3, C18:2, C18:1) (f14, female rats, Table 15a): 5.98 *
TAG (DAG-Fragment) (f14, female rats, Table 15a): 7.86 *
TAG No 059 (f14, female rats, Table 15a): 4.67 *
Threonic acid (f14, female rats, Table 15a): 1.18 *
trans-4-Hydroxyproline (f14, female rats, Table 15a): 2.44 *
Androstenedione (f14, female rats, Table 15b): 0.11 *
Arginine (f14, female rats, Table 15b): 0.98 *
Campesterol (f14, female rats, Table 15b): 0.89
Ceramide (d18:1,C24:0) (f14, female rats, Table 15b): 2.02 *
Lactate (f14, female rats, Table 15b): 0.74 *
Lysine (f14, female rats, Table 15b): 0.63 *
Metanephrine (f14, female rats, Table 15b): 0.72 *
Normetanephrine (f14, female rats, Table 15b): 0.66 *
Phosphatidylcholine (C16:0,C20:5) (f14, female rats, Table 15b): 1.54
Phosphatidylcholine (C16:0,C22:6) (f14, female rats, Table 15b): 0.84 *
Phosphatidylcholine (C18:0, C20:3) (f14, female rats, Table 15b): 0.98
Phosphatidylcholine (C18:0,C18:1) (f14, female rats, Table 15b): 0.93
Progesterone (f14, female rats, Table 15b): 0.13 *
Pyruvate (f14, female rats, Table 15b): 0.83 *
Sphingomyelin (d18:1,C23:0) (f14, female rats, Table 15b): 1.26
Sphingomyelin (d18:1,C24:0) (f14, female rats, Table 15b): 1.33 *
Urea (f14, female rats, Table 15b): 0.48 *
3-Hydroxybutyrate (f28, female rats, Table 15a): 1.06
DAG (C18:1,C18:2) (f28, female rats, Table 15a): 2.27 *
Glutamate (f28, female rats, Table 15a): 1.73 *
Glycine (f28, female rats, Table 15a): 1.18 *
Phosphatidylcholine (C16:0,C20:5) (f28, female rats, Table 15a): 1.32 *
TAG (C16:0,C16:1) (f28, female rats, Table 15a): 5.83 *
TAG (C16:0,C18:1,C18:3) (f28, female rats, Table 15a): 6.23 *
TAG (C16:0,C18:2) (f28, female rats, Table 15a): 4.89 *
TAG (C18:1,C18:2) (f28, female rats, Table 15a): 4.95 *
TAG (C18:2,C18:2) (f28, female rats, Table 15a): 4.92 *
TAG (C18:3, C18:2, C18:1) (f28, female rats, Table 15a): 4.74 *
TAG (DAG-Fragment) (f28, female rats, Table 15a): 5.74 *
TAG No 059 (f28, female rats, Table 15a): 3.5 *
Threonic acid (f28, female rats, Table 15a): 1.94 *
trans-4-Hydroxyproline (f28, female rats, Table 15a): 2 *
Androstenedione (f28, female rats, Table 15b): 0.07 *
Arginine (f28, female rats, Table 15b): 0.83 *
Campesterol (f28, female rats, Table 15b): 0.54 *
Ceramide (d18:1,C24:0) (f28, female rats, Table 15b): 1.53 *
Lactate (f28, female rats, Table 15b): 0.73 *
Lysine (f28, female rats, Table 15b): 0.57 *
Metanephrine (f28, female rats, Table 15b): 0.66 *
Normetanephrine (f28, female rats, Table 15b): 0.78 *
Phosphatidylcholine (C16:0,C20:5) (f28, female rats, Table 15b): 1.32
Phosphatidylcholine (C16:0,C22:6) (f28, female rats, Table 15b): 0.74 *
Phosphatidylcholine (C18:0, C20:3) (f28, female rats, Table 15b): 0.91 *
Phosphatidylcholine (C18:0,C18:1) (f28, female rats, Table 15b): 0.86
Progesterone (f28, female rats, Table 15b): 0.06 *
Pyruvate (f28, female rats, Table 15b): 0.65 *
Sphingomyelin (d18:1,C23:0) (f28, female rats, Table 15b): 0.63 *
Sphingomyelin (d18:1,C24:0) (f28, female rats, Table 15b): 1.05
Urea (f28, female rats, Table 15b): 0.88 *
